Data on 91 compounds can be found in PubChem BioAssay AID434951 (Broad Institute, 2010).

Calls of active or inactive are those of the source.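 The calls were made as follows: active = a fitted half-maximal concentration EC50 for the rise in nuclear signal no higher than ten times the top dose tested; inconclusive = flat fit with activity between 30% and 70%, or unusable fit; inactive = EC50 beyond ten times the top dose.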

The target in the test is Hypoxia-inducible factor 1-alpha (Homo sapiens) (UniProt Q16665). Nature of the test: HIF pathway activation, GFP-HIF1alpha translocation – imaging, fluorescence, U2OS GFP-HIF1alpha, confirmation (AID 434951). As to conditions: U2OS GFP-HIF1alpha nuclear intensity, high-content imaging.
Sequence of Hypoxia-inducible factor 1-alpha (Homo sapiens) (Q16665 whole entry, looked up): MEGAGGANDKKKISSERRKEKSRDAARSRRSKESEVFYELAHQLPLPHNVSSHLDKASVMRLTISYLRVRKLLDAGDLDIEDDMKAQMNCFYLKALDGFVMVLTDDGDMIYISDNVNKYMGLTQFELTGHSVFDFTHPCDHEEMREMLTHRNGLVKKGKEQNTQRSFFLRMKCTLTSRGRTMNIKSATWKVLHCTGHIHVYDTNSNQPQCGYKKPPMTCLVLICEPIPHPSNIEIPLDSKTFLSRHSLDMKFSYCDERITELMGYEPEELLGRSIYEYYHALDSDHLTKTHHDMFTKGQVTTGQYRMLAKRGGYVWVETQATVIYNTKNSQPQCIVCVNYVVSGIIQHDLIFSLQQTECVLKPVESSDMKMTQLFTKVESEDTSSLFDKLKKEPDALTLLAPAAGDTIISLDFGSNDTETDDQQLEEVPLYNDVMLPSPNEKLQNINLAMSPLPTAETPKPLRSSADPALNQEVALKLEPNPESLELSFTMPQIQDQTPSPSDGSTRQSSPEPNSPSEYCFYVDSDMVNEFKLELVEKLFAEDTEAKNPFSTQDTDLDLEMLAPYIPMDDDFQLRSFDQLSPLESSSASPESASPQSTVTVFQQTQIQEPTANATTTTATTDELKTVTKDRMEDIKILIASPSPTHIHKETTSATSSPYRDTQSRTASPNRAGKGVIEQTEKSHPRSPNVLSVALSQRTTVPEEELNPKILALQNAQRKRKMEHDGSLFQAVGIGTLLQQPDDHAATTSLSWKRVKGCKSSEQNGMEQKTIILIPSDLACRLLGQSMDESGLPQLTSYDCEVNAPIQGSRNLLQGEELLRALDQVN
Take `CCN(CC)S(=O)(=O)c1cccc(C(=O)N/N=C(\C)c2ccc(O)cc2O)c1`: the EC50 – broadly, the concentration that produces a half-maximal response – is 2.12 µM.

`CC(C)NC(=S)NN=C1c2ccccc2-c2ccccc21`: the EC50 was > 35 µM (inactive).

As for `CCCn1c(SCC(=O)Nc2ccccc2CC)nnc1C(C)C`, the EC50 is > 35 µM (inactive).

For `O=C(c1ccc(Cl)cc1Cl)N1CCN(c2ccc(N3CCOCC3)nn2)CC1`, the EC50 was > 35 µM (inactive).

On to `Cc1[nH]n(-c2ccccc2)c(=O)c1N=Nc1ccc2c(c1)OCCO2`, for which the EC50 is > 35 µM (inactive).

For `Cc1ccc(/C=N/NC(=O)c2ccc(Br)o2)s1`, the EC50 is > 35 µM (inactive).

Consider `Oc1cccc(/C=N/c2c(-c3ccco3)nc3ccccn23)c1`, for which the EC50 is > 35 µM (inactive).

Take `CC1=NN2C(=N)/C(=C\c3cc(C)n(Cc4ccccc4)c3C)C(=O)N=C2S1`: the EC50 is > 35 µM (inactive).

With `CC(C)c1ccc(N(C(=O)c2snc(C(N)=O)c2N)C(C(=O)NC2CCCC2)c2ccncc2)cc1` (stereo unspecified), the EC50 was 21.4 µM.

As to `CN(CC(=O)Nc1ccccc1Oc1ccccc1)Cc1ccccc1F`, the EC50 is > 35 µM (inactive).

With `CCCOC(=O)NC1C(NC(=O)OCCC)N(C)C(=O)N1C` (stereo unspecified), the EC50 is > 35 µM (inactive).

Turning to `CC1CC(C)CN(S(=O)(=O)c2ccc3c(c2)oc(=O)n3CC(=O)NCCCOC(C)C)C1` (stereo unspecified), the EC50 is > 35 µM (inactive).

Turning to `Cc1nn(C(=O)c2cccnc2)c(C)c1Sc1ccccc1`, the EC50 is > 35 µM (inactive).

Regarding `COc1cccc(/C=N\NC(=O)Cn2nnc3ccccc32)c1O`, the EC50 was > 35 µM (inactive).

For the compound `COC(=O)Nc1ccc(=O)n(Cc2c(Cl)cccc2Cl)c1`, the EC50 is > 35 µM (inactive).

In the case of `OCc1ccc(N=Nc2ccccc2)cc1`, the EC50 is > 35 µM (inactive).

In the case of `Cc1ccccc1N=Nc1ccc(O)c2ncccc12`, the EC50 is 5.04 µM.

Regarding `O=C(NCCc1ccccc1)C1CCN(S(=O)(=O)c2ccc(-n3cnnn3)cc2)CC1`, the EC50 was > 35 µM (inactive).

As to `C1CCC2(CC1)C1=C(CCCC1)Nc1nnnn12`, the EC50 is > 35 µM (inactive).

Take `CCC1CCCCN1CCCNC(=O)C1CCN(c2nnc(-n3cccc3)s2)CC1` (stereo unspecified): the EC50 is > 35 µM (inactive).

With `CC1SC(=NC(=O)c2ccncc2)NC1=O` (stereo unspecified), the EC50 was > 35 µM (inactive).

Turning to `CN(CCS(=O)(=O)c1ccc(Cl)cc1)Cc1cccnc1`, the EC50 is > 35 µM (inactive).

Turning to `Oc1c(CN2CCCCC2)cc(COCc2ccccc2)c2cccnc12`, the EC50 was 11.9 µM.

With `Cc1ccc(C(=O)Nc2cccc([N+](=O)[O-])c2)cc1S(=O)(=O)Nc1ccc(NC(=O)c2ccccc2)cc1`, the EC50 is > 35 µM (inactive).

On to `CCOc1ccccc1NC(=O)CSc1ncnc2c1oc1ccccc12`, for which the EC50 is > 35 µM (inactive).

Turning to `COc1ccccc1-c1cc(C(F)(F)F)nc(S(=O)(=O)CCCC(=O)NC(C)C)n1`, the EC50 is > 35 µM (inactive).

For the compound `CC(=O)N1CCC(=NNc2nc3ccccc3[nH]2)CC1`, the EC50 is > 35 µM (inactive).

On to `Nc1cc2c3c(cccc3c1)C(=O)N(CCN1CCCC1)C2=O`, for which the EC50 is 16.4 µM.

`CC12CC3(C)CC(C)(C1)CC(C(=O)NCCc1ccc(S(N)(=O)=O)cc1)(C2)C3`: the EC50 was > 35 µM (inactive).

For `COc1ccc(C(=O)/C=C/C(=O)N(CC(=O)NC2CCCCC2)CC2CCCO2)c(O)c1` (stereo unspecified), the EC50 was > 35 µM (inactive).

As for `c1ccc(CSc2ccc(-c3ccccn3)nn2)cc1`, the concentration giving a half-maximal response (EC50) is 5.92 µM.

Consider `O=C1C=C(c2ccccc2)CC(c2cccs2)C1n1cnc([N+](=O)[O-])c1` (stereo unspecified), for which the EC50 is > 35 µM (inactive).

As to `CC(=O)Nc1cccc(NC(=O)CS(=O)(=O)c2cn(CC(=O)N3CCOCC3)c3ccccc23)c1`, the EC50 is > 35 µM (inactive).

Turning to `CC(=O)Nc1c([N+](=O)[O-])cc(C)c(Cl)c1[N+](=O)[O-]`, the EC50 was > 35 µM (inactive).

With `CC(C)c1nnc(NC(=O)CCC(=O)NC2CC2)s1`, the EC50 is > 35 µM (inactive).

`CCN(CC)S(=O)(=O)c1ccc(N2CCOCC2)c(NC(=O)c2cccc3ccccc23)c1`: the EC50 is > 35 µM (inactive).

Turning to `C/C(=N\NC(=O)Cc1ccc(Cl)cc1)c1ccccn1`, the EC50 is 5.92 µM.

Regarding `Cc1cc(C)nc(N/N=C/c2cc(Br)ccc2O)n1`, the EC50 is 8.31 µM.

`Cc1onc(-c2c(Cl)cccc2Cl)c1C(=O)N=C(N)N1CCCC1`: the EC50 was > 35 µM (inactive).

With `O=C(Cn1nc(-c2ccccc2Cl)ccc1=O)Nc1ccccc1-c1ccccc1`, the EC50 is > 35 µM (inactive).

For the compound `COc1ccccc1CCNS(=O)(=O)c1cc2c3c(c1)C(C)C(=O)N3CCC2` (stereo unspecified), the EC50 is > 35 µM (inactive).

As for `ONC=Nc1cccc2nonc12`, the EC50 is > 35 µM (inactive).

For `Cc1ccc(C2=NOC(=O)/C2=C\c2ccccc2)cc1`, the EC50 is > 35 µM (inactive).

Turning to `O=C(N/N=C/c1ccc(F)cc1)c1cc(-c2ccc3c(c2)OCO3)n[nH]1`, the half-maximal effective concentration (EC50) was 16.2 µM.

Take `O=C(N/N=C(\Cc1ncc[nH]1)c1ccccc1)c1ccccc1`: the EC50 was > 35 µM (inactive).

For the compound `Cc1cc(SCC(=O)N/N=C/c2ccc(O)c(O)c2O)c(C)cc1Br`, the EC50 was > 35 µM (inactive).

As for `O=C(CSc1c[nH]c2ccccc12)NCc1ccc2c(c1)OCO2`, the EC50 was > 35 µM (inactive).

`O=C(N/N=C(\c1ccccc1)c1ccccn1)c1cccc([N+](=O)[O-])c1`: the EC50 is 0.629 µM.

`CCCC(=O)NC(c1ccc(OC)cc1)c1ccc2cccnc2c1O` (stereo unspecified): the EC50 is 7.24 µM.

With `COc1ccc(/C=C2\SC(=O)N(CCC(=O)N(C)C3CCS(=O)(=O)C3)C2=O)cc1` (stereo unspecified), the EC50 was > 35 µM (inactive).

As for `CCCCC(=O)NC(c1ccccc1OC)c1ccc2cccnc2c1O` (stereo unspecified), the EC50 is 6.81 µM.

With `COc1cc2c(cc1OC)C(C)N(S(=O)(=O)c1ccc(Cl)nc1)CC2` (stereo unspecified), the EC50 was > 35 µM (inactive).

Consider `COc1ccc(C2CC(c3cccs3)=NN2C(=O)CSc2nc(=O)n3cc(C)ccc3n2)cc1` (stereo unspecified), for which the EC50 is > 35 µM (inactive).

For the compound `Cc1ccc2nc(-c3ccccc3NC(=O)CCC(=O)O)c(=O)[nH]c2c1`, the EC50 is > 35 µM (inactive).

`CSc1ccc(/C=N/Nc2ccc(Cl)c(C(=O)O)c2)cc1`: the EC50 is > 35 µM (inactive).

For the compound `COc1ccccc1C/C(N)=N/O`, the EC50 is > 35 µM (inactive).

For `COc1ccc(-n2c(C)cc(C(=O)CCl)c2C)cc1`, the EC50 is 12.4 µM.

Turning to `O=C(CN1CCCCC1)N1CCCc2ccccc21`, the EC50 is > 35 µM (inactive).

With `COc1ccc(S(=O)(=O)N2CCOC2CNC(=O)C(=O)NCc2ccc3c(c2)OCO3)cc1OC` (stereo unspecified), the EC50 is > 35 µM (inactive).

Turning to `Oc1ccc(Br)cc1/C=N/Nc1ccccn1`, the EC50 is 7.01 µM.

Turning to `Cc1cc(C)c2c(N)c3ccccc3nc2n1`, the EC50 was 17.4 µM.

Regarding `CCC(C)(C)c1nnc(NC(=O)C2CCN(C(=O)c3ccco3)CC2)s1`, the EC50 is > 35 µM (inactive).

As to `CCC(=O)NC(c1cccs1)c1ccc2cccnc2c1O` (stereo unspecified), the EC50 is 5.48 µM.

On to `CCCCn1c(N)c(N(CC)C(=O)c2cc(OC)cc(OC)c2)c(=O)[nH]c1=O`, for which the EC50 is > 35 µM (inactive).

For `Cn1nnc(NC(=O)c2cccc([N+](=O)[O-])c2)n1`, the EC50 is > 35 µM (inactive).

Take `COc1ccc(CNC(=O)CN(CC2CCCO2)C(=O)CNS(=O)(=O)c2ccc(C)cc2)cc1` (stereo unspecified): the EC50 is > 35 µM (inactive).

As for `CN(/N=C/c1c[nH]c2ccccc12)c1cnn(-c2ccc(F)c(Cl)c2)c(=O)c1Cl`, the EC50 was > 35 µM (inactive).

`COC(=O)c1cc(S(=O)(=O)NCc2ccccc2OC)cn1C`: the EC50 is > 35 µM (inactive).

Regarding `Nc1ccc(C(=O)Nc2ccc3nc(-c4ccncc4)[nH]c3c2)cc1`, the EC50 was > 35 µM (inactive).

Take `CC(C)c1ccc(NC(=O)CCc2ccccc2)cc1`: the EC50 is > 35 µM (inactive).

On to `CCC(=O)N1CCc2cc(S(=O)(=O)NCCC(=O)N3CCN(c4cccc(OC)c4)CC3)ccc21`, for which the EC50 was > 35 µM (inactive).

Regarding `O=C(NCC(=O)N(Cc1ccco1)C(C(=O)NC1CCCCC1)c1cccnc1)c1cccs1` (stereo unspecified), the EC50 was > 35 µM (inactive).

Regarding `CCOc1ccc(NC(=O)CSc2nnc(Cn3cnc4ccccc43)n2C)cc1`, the EC50 was > 35 µM (inactive).

For `CCCCC(=O)NC(c1ccc(N(C)C)cc1)c1ccc2cccnc2c1O` (stereo unspecified), the concentration giving a half-maximal response (EC50) was 3.09 µM.

Regarding `Cc1ccc(Nc2c(-c3ccccn3)nc3cccc(C)n23)cc1`, the EC50 is 4.41 µM.

On to `O=C(Cn1ncc2c3ccccc3n(Cc3ccccc3F)c2c1=O)NCCN1CCOCC1`, for which the EC50 was > 35 µM (inactive).

As to `O=C(NC1CCCC1)c1cc(-c2cccs2)on1`, the EC50 was 7.26 µM.

For the compound `Cc1cccc(CCNC(=O)Cn2ncc3c([nH]c4ccc(C)cc43)c2=O)c1`, the EC50 is > 35 µM (inactive).

On to `COCCNC(=O)c1sc2nc(-c3ccccc3)cn2c1C`, for which the EC50 was > 35 µM (inactive).

Consider `COc1ccc(N2CCN(S(=O)(=O)c3cc(-c4cc(C)no4)ccc3C(C)C)CC2)cc1`, for which the EC50 was > 35 µM (inactive).

On to `CSc1nc(C)cc(C)c1C#N`, for which the EC50 is > 35 µM (inactive).

In the case of `CN1CCN(Cc2nc3ccccc3c(=O)n2Cc2nc(-c3ccccc3F)cs2)CC1`, the EC50 was 8.66 µM.

As to `CCOc1ccccc1CN1CCN(S(C)(=O)=O)CC1`, the EC50 is > 35 µM (inactive).

For `COc1ccc(NC(=O)CSc2ncnc3[nH]ncc23)cc1`, the EC50 is > 35 µM (inactive).

`O=C(N/N=C/c1c(O)ccc2ccccc12)c1[nH]ncc1Br`: the EC50 was 7.11 µM.

For `O=C(N/N=C/c1cc(Br)cc(Cl)c1O)c1ccc2c(c1)OCO2`, the EC50 was > 35 µM (inactive).

Turning to `CCN1CN(CCc2ccccc2)CNC1=S`, the EC50 is > 35 µM (inactive).

For `CCSc1nc(NCCN(C)C)c2c3c(sc2n1)COC(C)(CC)C3` (stereo unspecified), the EC50 is > 35 µM (inactive).

Turning to `Cc1ccc(-n2nc3c(=O)n(CC(=O)NCc4ccccc4)nc(C)c3c2C)cc1`, the EC50 is > 35 µM (inactive).

As to `NC(=O)c1sc2nccc(Nc3ccccc3)c2c1N`, the EC50 is > 35 µM (inactive).

For the compound `COc1ccccc1-c1cc(C(F)(F)F)nc(S(=O)(=O)CCCC(=O)NCc2ccc(F)cc2)n1`, the EC50 was 9.53 µM.
